The test system of this test is phosphorylated ERK (Thr202/Tyr204) in NCI-H358 cells expressing mutant RAS(G12C). Briefly: Inhibition of RAS-mediated signal transduction: phosphorylated ERK ELISA in NCI-H358 cells. Format: cell-based. The note with it: NCI-H358 cells, 2 hours of treatment, pERK normalized by Janus Green B, read-out: p-ERK IC50 (NCI H358). As for the experimental part:
The cells were treated with or without the compound of the present disclosure (dimethyl sulfoxide, DMSO), and the final concentration of DMSO was guaranteed to be 0.5%. After 2 hours of treatment, the medium was removed and 4% paraformaldehyde (Beyotime catalog number E672002-0100) was added and left to stand for 20 minutes. Cells were washed with PBS after fixation and incubated with precooled methanol for 10 min to permeabilize the cell membrane.
The level of phosphorylated ERK was detected using an enzyme linked immunosorbent assay (ELISA) method. […] The plates were washed 5 times with PBS containing 0.05% Tween 20. […] The reaction was stopped by adding 1 mol/L H2SO4, and the OD value was read at 450 nm by EnVision (PerkinElmer).
The total number of cells per well was detected by Janus Green B staining method. After detecting the level of phosphorylated ERK, the 96-well plate was washed with PBS until colorless, and 0.1% Janus Green B (Abcam catalogue number ab111622) was added to incubate for 10 minutes. After the 96-well plate was washed with double distilled water, 0.1 mol/L HCl was added, then the mixture was shaked and incubated for 10 minutes. The OD value was read at 595 nm by EnVision (PerkinElmer).
The signal of pERK (Thr202/Tyr204) was normalized by the signal value of Janus Green B, and the inhibition percentage after drug treatment relative to DMSO reference was calculated. The percentage values were fitted by a four-parameter dose-response curve and generated IC50 values.
Background: In an ELISA, binding on a coated surface is turned into a signal by an enzyme label.

As a reminder, the IC50 is the concentration that gives 50% inhibition.

Read-outs that look alike come from different tables or passages of the source.

Take `C=CC(=O)N1C[C@@H]2COc3c(c4cc(F)c(-c5c(O)cccc5F)c(F)c4n(-c4c(C)ccnc4C(C)C)c3=O)N2C[C@H]1C` (atropisomer, axis not shown) [Compound 3A-1]: the IC50 worked out at 3010 nM. For `C=CC(=O)N1C[C@@H]2C(=O)N(C3CN(C)C3)c3c(c4cc(F)c(-c5c(F)cccc5OC)c(F)c4n(-c4c(C)ccnc4C(C)C)c3=O)N2C[C@H]1C` [Compound 43], the half-maximal inhibitory concentration (IC50) (Homo sapiens, NCI-H358, 2 h) was determined as 1920 nM. As for `C=CC(=O)N1C[C@@H]2C(=O)N(C)c3c(c4cc(F)c(-c5c(O)cccc5F)c(F)c4n(-c4c(C)ccnc4C(C)C)c3=O)N2C[C@H]1C` [Compound 21A], the IC50 amounted to 13 nM. As to `C=CC(=O)N1C[C@@H]2CN(CC(=O)O)c3c(c4cc(F)c(-c5c(O)cccc5F)c(F)c4n(-c4c(C)ccnc4C(C)C)c3=O)N2C[C@H]1C` [Compound 39A-1], the IC50 came to 1640 nM. On to `C=CC(=O)N1C[C@@H]2C(=O)N(CCN(C)C)c3c(c4cc(Cl)c(-c5c(O)cccc5F)c(F)c4n(-c4c(CC)ccnc4C(C)C)c3=O)N2C[C@H]1C` [Compound 54A-1], for which the IC50 came to 641 nM.

As for `C=CC(=O)N1C[C@@H]2CN(CC(=O)OC)c3c(c4cc(F)c(-c5c(O)cccc5F)c(F)c4n(-c4c(C)ccnc4C(C)C)c3=O)N2C[C@H]1C` [Compound 38B-1], the 50% inhibitory concentration (IC50) worked out at 1130 nM. As for `C=CC(=O)N1C[C@@H]2COc3c(c4cc(F)c(-c5c(F)cccc5OC)nc4n(-c4ccccc4C(C)C)c3=O)N2C[C@H]1C` [Compound 1A], the IC50 (Homo sapiens, NCI-H358, 2 h) was 173 nM.

Turning to `C=CC(=O)N1C[C@@H]2CN(CC(=O)OC)c3c(c4cc(F)c(-c5c(O)cccc5F)c(F)c4n(-c4c(C)ccnc4C(C)C)c3=O)N2C[C@H]1C` [Compound 38A-1], the IC50 was determined as 242 nM. For `C=CC(=O)N1C[C@@H]2C(=O)N(C)c3c(c4cc(F)c(-c5c(N)cccc5F)c(F)c4n(-c4c(C)ccnc4C(C)C)c3=O)N2C[C@H]1C` [Compound 33A-1], the half-inhibitory concentration (IC50) (Homo sapiens, NCI-H358, 2 h) was 717 nM. As for `C=CC(=O)N1C[C@@H]2COc3c(c4cc(F)c(-c5c(C)ccc6[nH]cnc56)nc4n(-c4ccccc4C(C)C)c3=O)N2C[C@H]1C` [Compound 17], the IC50 (Homo sapiens, NCI-H358, 2 h) stood at 275 nM. Regarding `C=CC(=O)N1C[C@@H]2CNc3c(c4cc(F)c(-c5c(O)cccc5F)nc4n(-c4ccccc4C(C)C)c3=O)N2C[C@H]1C` [Compound 11A], the IC50 (Homo sapiens, NCI-H358, 2 h) was 1120 nM.

On to `C=CC(=O)N1C[C@@H]2COc3c(c4cc(F)c(-c5c(F)cccc5OC)nc4n(-c4c(C)ccnc4C(C)C)c3=O)N2C[C@H]1C` (single isomer, unassigned) [Compound 6B], for which the half-maximal inhibitory concentration (IC50) worked out at 691 nM.

As for `C=CC(=O)N1CC2COc3c(c4cc(F)c(-c5c(O)cccc5F)c(F)c4n(-c4c(C(C)C)ncnc4C(C)C)c3=O)N2CC1C` (single isomer, unassigned) [Compound 19B], the IC50 amounted to 936 nM. On to `C=CC(=O)N1C[C@@H]2C(=O)N(C)c3c(c4cc(Cl)c(-c5c(O)cccc5F)c(F)c4n(-c4c(C)ccnc4C(C)C)c3=O)N2C[C@H]1C` [Compound 23B-1], for which the IC50 is 150 nM. For `C=CC(=O)N1C[C@@H]2C(=O)N(CCN(C)C)c3c(c4cc(F)c(-c5c(F)cccc5OC)c(F)c4n(-c4c(C)ccnc4C(C)C)c3=O)N2C[C@H]1C` [Compound 48A-1], the IC50 (Homo sapiens, NCI-H358, 2 h) came out at 294 nM. As to `C=CC(=O)N1C[C@@H]2CN(CCCN(C)C)c3c(c4cc(F)c(-c5c(O)cccc5F)c(F)c4n(-c4c(C)ccnc4C(C)C)c3=O)N2C[C@H]1C` [Compound 34A], the 50% inhibitory concentration (IC50) (Homo sapiens, NCI-H358, 2 h) came out at 503 nM. For the compound `C=CC(=O)N1C[C@@H]2C(=O)Nc3c(c4cc(F)c(-c5c(O)cccc5F)c(F)c4n(-c4c(C)ccnc4C(C)C)c3=O)N2C[C@H]1C` [Compound 22B-1], the concentration for half-maximal inhibition (IC50) was 213 nM. As to `C=CC(=O)N1C[C@@H]2CN(C)c3c(c4cc(F)c(-c5c(O)cccc5F)c(F)c4n(-c4c(C)ccnc4C(C)C)c3=O)N2C[C@H]1C` (atropisomer, axis not shown) [Compound 16B-1], the IC50 stood at 648 nM. With `C=CC(=O)N1C[C@@H]2C(=O)N(C)c3c(c4cc(Cl)c(-c5c(O)cccc5F)c(F)c4n(-c4c(C)ccnc4C(C)C)c3=O)N2C[C@H]1C` [Compound 23B-2], the half-maximal inhibitory concentration (IC50) is 749 nM.

The record behind these values is US12122787B2, “Fused pyridone compound, and preparation method therefor and use thereof” (SHANGHAI JEMINCARE PHARMACEUTICALS CO., LTD, priority 2019, dated 2024).
